Patent publication US20230220331A1, “TEMPORARY TREATMENT MEDIUM, TREATMENT KIT, EMBRYOGENESIS ARREST INHIBITOR, EMBRYOGENESIS ARREST INHIBITORY METHOD, DEVELOPMENTAL ENGINEERING PRODUCT PREPARATION METHOD, TRANSPLANTATION METHOD, THERAPEUTIC METHOD, AND DEVELOPMENTAL ENGINEERING PRODUCT” (priority 2020, published 2023)

Experiments:
inbred mouse B6J embryos = test: Generation of Flox inbred mice (individuals) by two-step method (Treatment Example 11); assay type: cell-based
Method: 1. Up to 3 hours before TAKE, Y-27632-added mWM medium (Y-27632 final concentration 10 μM, an example of the “temporary treatment medium” of this example), Y-27632-free mWM medium (an example of “normal medium” of this example), 5 drops of each medium were dropped on 35 mm Petri dish, and then covered with paraffin oil. For the drops, twice the number of the drops plates to be performed TAKE were prepared.
2. Pronuclear stage embryos were collected, placed in Y-27632-added mWM medium, and cultured for about 30 minutes to 1 hour (temporary treatment).
(§1) 3. After that, the first TAKE was performed.
3a. In the case of frozen eggs, after the first TAKE, they were placed in a Y-27632-added mWM medium and cultured for about 30 minutes to 1 hour (temporary treatment).
3b. In the case of unfrozen eggs, after the first TAKE, they were placed in a Y-27632-added mWM medium and cultured under 37° C. and 5% CO2 (5% O2) conditions until the next day (temporary treatment).
4. After the temporary treatment, the embryos were placed in Y-27632-free mWM medium and cultured at 37° C. and 5% CO2 (5% O2) conditions until the next day.
5. Both were confirmed at the next day, and the embryos at the 2-cell stage were subjected to the second TAKE.
6. After the second TAKE, the embryos were placed in Y-27632-added mWM medium and cultured for about 30 minutes to 1 hour (temporary treatment).
7. Then, they were transferred to Y-27632-free mWM medium. If necessary, culture was continued or embryo transfer was performed.
By using an inbred mouse (B6J in B6 strain) different from the inbred mouse of the treatment example 2 according to the first embodiment, knock-in is performed by the same two-step method as the above-mentioned treatment example 2, and further individual preparation is performed.

inbred rat F344 embryos = test: Development to blastocyst after two electroporations (Treatment Example 5); assay type: cell-based; conditions: treated before and after electroporation
Method: 1. At least 3 hours before TAKE, 5 drops of Y-27632-added KSOM AA medium (Y-27632 final concentration 10 μM, an example of the “temporary treatment medium” of this example) were placed on a 35 mm Petri dish and drops covered with paraffin oil.
2. Pronuclear stage embryos were collected, placed in Y-27632-added KSOM AA medium, and cultured for about 30 minutes to 1 hour (temporary treatment).
as §1
4. After TAKE, the embryos were placed in Y-27632-added KSOM AA medium and cultured under 37° C., 5% CO2, and 5% O2 conditions for 30 minutes and more and up to 12 hours (temporary treatment).
5. Then, they were placed in Y-27632-free KSOM AA medium (an example of the “normal medium” of this example), and cultured under 37° C., 5% CO2, and 5% O2 conditions until the second TAKE.
6. The next day, the embryos that had become two cells were separated, and about 20 to 22 hours after egg collection, they were placed in Y-27632-added KSOM AA medium again and cultured for about 30 minutes to 1 hour (temporary treatment).
7. After that, the second TAKE was performed.
8. […]
In these figures, the development rate of the two-cell stage was calculated as the ratio of the two-cell stage embryo to the pronuclear stage embryo, and the development rate of the blastocyst stage was calculated as the ratio of the blastocyst stage to the two-cell stage embryo.

[1] = floxed Mecp2 2STEP (HIGH CONCENTRATION)

Q: With `C[C@@H](N)[C@H]1CC[C@H](C(=O)Nc2ccncc2)CC1` [Y-27632, trans-4-[(1R)-1-Aminoethyl]-N-4-pyrid inylcyclohexanecarboxamide] as the compound, how does the Flox individuals % (inbred mouse B6J embryos; floxed Drb1 2STEP) read?
A: 2.6%

Q: And the “NUMBER OF FLOX INDIVIDUALS” value (inbred mouse B6J embryos; floxed Drb1 2STEP)?
A: 1/39

Q: And the Flox individuals % (inbred mouse B6J embryos; [1])?
A: 3.9%

Q: What about the “NUMBER OF FLOX INDIVIDUALS” value (inbred mouse B6J embryos; [1]) of the same compound?
A: 2/51

Q: And the “2-cell stage embryos developed until the blastocyst stage (proportion)” value (inbred rat F344 embryos)?
A: 74 of 103

Q: What about the “embryos developed to the blastocyst (%)” value (inbred rat F344 embryos; ratio of blastocysts to 2-cell embryos) of the same compound?
A: 71.8%
